Data published in publication PMC4438233, “Antibacterial effects of Traditional Chinese Medicine monomers against Streptococcus pneumoniae via inhibiting pneumococcal histidine kinase (VicK)” (Frontiers in Microbiology, 2015).
Like-named read-outs stand apart in the source and are kept apart here.

Columns and labels:
full-length VicK protein = molecular target: T1, full-length VicK protein (Streptococcus pneumoniae, UniProt Q8DPL8); assay: Inhibition assay for ATPase activity of VicK (Kinase-Glo Luminescent Kinase Assay); assay type: biochemical; details: 6 μg VicK, 5 μM ATP, read-out: IC50 (inhibition of VicK ATPase activity / autophosphorylation) (converted)
T1 construct: 6 His; made in house
T1 sequence (Q8DPL8 whole entry): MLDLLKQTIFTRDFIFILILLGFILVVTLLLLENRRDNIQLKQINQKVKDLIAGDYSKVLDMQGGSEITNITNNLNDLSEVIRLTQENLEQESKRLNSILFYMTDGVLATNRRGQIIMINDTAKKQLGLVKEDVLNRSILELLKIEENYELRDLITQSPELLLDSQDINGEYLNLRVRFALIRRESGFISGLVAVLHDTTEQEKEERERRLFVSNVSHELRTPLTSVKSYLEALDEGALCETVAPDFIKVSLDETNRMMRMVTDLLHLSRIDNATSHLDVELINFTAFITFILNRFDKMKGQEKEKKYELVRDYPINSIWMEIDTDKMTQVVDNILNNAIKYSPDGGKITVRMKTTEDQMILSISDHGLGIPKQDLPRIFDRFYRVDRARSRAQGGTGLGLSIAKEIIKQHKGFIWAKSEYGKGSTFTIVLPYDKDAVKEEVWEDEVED
Protocol: The inhibitory activities of the Chinese medicine monomers for the ATPase activity of the full-length VicK protein were evaluated using the Kinase-Glo™Luminescent Kinase Assay (Promega, Madison, USA). Briefly, 6 μg VicK protein was pre-incubated with a series of dilution of compounds in the reaction buffer at 37°C for 30 min. 5 μM ATP was added and incubated for another 30 min. Kinase-Glo™Reagent was also added to detect the remaining ATP recorded from luminescence measurements (RLU). In parallel, the VicK protein with no addition of compounds was used as a control, and the mixture with compounds excluding the VicK protein served as another control. The rate of protein phosphorylation (Rp) inhibition by the compounds was calculated from Equation (1).
(1) Rp=1−RLU(compound+ATP+Reagent) −RLU(compound+ATP+vick+Reagent)/RLU(ATP +Reagent)−RLU(ATP+vick+Reagent)×100%
The half maximal inhibitory concentration (IC50), which is the concentration of inhibition of 50% VicK protein autophosphorylation, was determined by GraphPad Prism 5 (Qin et al., [2006]).

S. pneumoniae NCTC7466 [1] = assay: MIC against S. pneumoniae NCTC7466 (D39); assay type: cell-based; details: Streptococcus pneumoniae, S. pneumoniae NCTC7466 (D39), read-out: MIC
Protocol: (§1) Minimum inhibitory concentration (MIC) assays for the antibacterial activities of the compounds were performed according to the standard […] method of the Clinical and Laboratory Standards Institute of America. MIC testing of drug-resistant S. pneumoniae, drug-resistant S. aureus, streptococci and antimicrobial combination was also performed using the same method. Briefly, the drugs were serially diluted 2-fold into eight wells with C+Y medium, yielding final concentrations ranging from […]. Then 10^6 CFU bacteria were added to each well. Inoculated medium containing 1% DMSO served as a bacterial growth control, whereas uninoculated medium served as a sterility control. The plates were incubated at 37°C for 12–16 h. […] The experiment was repeated three times.

pneumococcal strains = assay: MIC against clinical pneumococcal strains (penicillin susceptible, intermediate, resistant); assay type: cell-based, Streptococcus pneumoniae; details: for MIC50 / MIC90: Streptococcus pneumoniae; for MIC50: read-out: MIC of pneumococcal strains, MIC50; for MIC90: read-out: MIC of pneumococcal strains, MIC90
Protocol: as §1

S. pyogenes = assay: MIC against S. pyogenes; assay type: cell-based; details: Streptococcus pyogenes; S. pyogenes clinical isolate; 10^6 CFU/ml; read-out: MIC
Protocol: as §1

S. mitis = assay: MIC against S. mitis; assay type: cell-based; details: Streptococcus mitis; S. mitis clinical isolate; 10^6 CFU/ml; read-out: MIC
Protocol: as §1

S. mutans = assay: MIC against S. mutans; assay type: cell-based; details: Streptococcus mutans; S. mutans clinical isolate; 10^6 CFU/ml; read-out: MIC
Protocol: as §1

S. pseudopneumoniae = assay: MIC against S. pseudopneumoniae; assay type: cell-based; details: Streptococcus pseudopneumoniae; S. pseudopneumoniae clinical isolate; 10^6 CFU/ml; read-out: MIC
Protocol: as §1

Cytotoxicity assay (MTT) = assay type: cell-based; details: African green monkey, Vero cells (African green monkey kidney cells)
Protocol: The cytotoxicity of the drugs to Vero cells (African green monkey kidney cells) was detected as previously described (Huang et al., [2012]) with minor modifications. In 96-well cell culture plates, the cells (~10^3 cells per well) were exposed to the serially diluted drugs for 48 h. Then, relative cell numbers were assayed by co-incubation with 3-(4, 5-dimethylthiazol-2-yl)-2, 5-diphenyltetrazolium bromide for 4 h at 37°C in 5% CO2. Purple formazan salts were dissolved with DMSO after incubation. The absorbance of each well was measured at 595 nm and then converted to percentages of the control (cells treated with 1% DMSO). The concentration of the derivatives with 50% cytotoxicity for Vero cells (CC50) was calculated using GraphPad Prism 5 (San Diego, CA).

S. pneumoniae NCTC7466 [2] = assay: Mouse sepsis model, survival time; assay type: in vivo, BALB/c mice; details: i.p. infection 1 × 10^3 CFU; drug i.p. thrice a day for 3 d; untreated control 28.8 ± 1.25
Protocol: Female BALB/c mice (12–15 per group) aged 4–6 weeks were used to evaluate the antimicrobial effects of the compounds in vivo. In sepsis models, the mice were intraperitoneally infected with 100 μL S. pneumoniae NCTC7466 strain suspension (1 × 10^3 CFU). […] Two control groups were injected with 100 μL 1% DMSO (dissolved the drugs, negative control) or PEN (0.42 mg/kg/d, positive control) following the same injection route. The result was expressed as cumulative survival times following 7 d of observation.

[3] = system: Penicillin-resistant S. pneumoniae strains; assay: Checkerboard test with penicillin against penicillin-resistant S. pneumoniae; assay type: cell-based, Streptococcus pneumoniae; details: Streptococcus pneumoniae, agent alone, read-out: MIC, Alone
Protocol: as §1
The antimicrobial effects of different combinations of two antimicrobial agents were assayed using the checkerboard test (Bajaksouzian et al., [1997]). Each experiment was repeated thrice. The in vitro interaction between the five drugs with PEN was quantified by the fractional inhibitory concentration (FIC). The FIC index (FICI) was calculated using the following formula:
(§2) (2) FIC=FICA+FICB=[A]/MICA+[B]/MICB
(§3) where [A] and [B] are the concentrations of drugs A and B, respectively; MICA and FICA are the MIC and FIC of drug A for the organism, respectively; and MICB, and FICB are the MIC and FIC of drug B for the organism, respectively. The FIC index obtained was interpreted as follows: =0.5, synergy; FIC > 2.0, antagonism (Gupta and Kohli, [2003]).

S. pneumoniae = assay: Checkerboard test with erythromycin or tetracycline against S. pneumoniae; assay type: cell-based, Streptococcus pneumoniae
Protocol: The antimicrobial effects of different combinations of two antimicrobial agents were assayed using the checkerboard test (Bajaksouzian et al., [1997]). Each experiment was repeated thrice. […] The FIC index (FICI) was calculated using the following formula:
as §2, §3

[4] = Penicillin intermediate (n = 12)

Question: What does the source list for `CSC[C@H]1O[C@@H](n2cnc3c(N)ncnc32)[C@H](O)[C@@H]1O` [Compound 1, 5′-(Methylthio)-5′-deoxyadenosine]?
Answer: IC50 (full-length VicK protein): 3.8 µM; IC50 (full-length VicK protein; value in parentheses): 3.77 µM; MIC (S. pneumoniae NCTC7466 [1]): 37.1 µg/mL; MIC (S. pneumoniae NCTC7466 [1]; value in parentheses): 124 µM; MIC of pneumococcal strains, Range (pneumococcal strains; [4]): 74 to 594 µg/mL; MIC of pneumococcal strains, Range (pneumococcal strains; Penicillin resistant (n = 15)): 296.8 to 593.6 µg/mL; MIC of pneumococcal strains, Range (pneumococcal strains; Penicillin susceptible (n = 7)): 74 to 148 µg/mL; MIC50 (pneumococcal strains; [4]): 148 µg/mL; MIC90 (pneumococcal strains; [4]): 296 µg/mL; MIC50 (pneumococcal strains; Penicillin resistant (n = 15)): 297 µg/mL; MIC90 (pneumococcal strains; Penicillin resistant (n = 15)): 297 µg/mL; MIC50 (pneumococcal strains; Penicillin susceptible (n = 7)): 74 µg/mL; MIC90 (pneumococcal strains; Penicillin susceptible (n = 7)): 148 µg/mL; MIC (S. pyogenes): 148 µg/mL; MIC (S. mitis): 148 µg/mL; MIC (S. mutans): 594 µg/mL; MIC (S. pseudopneumoniae): 148 µg/mL; CC50 at 48 h (Cytotoxicity assay (MTT)): > 16000 µM; Mean survival of mice ± SEM (S. pneumoniae NCTC7466 [2]): 49.5 ± 3.93 h; MIC ([3]; strain 652336): 297 µg/mL; MIC ([3]; strain 736007): 297 µg/mL; MIC ([3]; strain 8364981): 148 µg/mL; MIC ([3]; strain 12092624): 297 µg/mL; FICI (S. pneumoniae; in combination with Erythromycin): 2; FICI (S. pneumoniae; in combination with Tetracycline): 0.9
